Assay results as given in patent publication US12447150B2, “Treatment of cancer by combination of immune checkpoint inhibitor and folfirinox therapy” (ONO PHARMACEUTICAL CO., LTD., priority 2018, dated 2025).

Tested on: distant metastatic pancreatic cancer
Assay: Multicenter, open-label study of Nivolumab in combination with mFFX therapy; anti-tumor effect by CT/MRI according to RECIST guideline version 1.1
Type: in vivo, patients
Details: 16 weeks after start of administration, central judgment
Protocol: The purpose of this clinical trial is to evaluate the efficacy and safety in combination of Nivolumab and mFFX therapy for patients with distant metastatic pancreatic cancer, having no history of chemotherapy. The clinical trial can evaluate the combined effect of Nivolumab and mFFX therapy.
Patients with distant metastatic pancreatic cancer, having no history of chemotherapy
Nivolumab was intravenously administered at 480 mg every 4 weeks over 30 minutes, and Nivolumab was continuously administered until falling into the prescribed criterion for discontinuing the administration of Nivolumab. No change in dose of Nivolumab is allowed. When Nivolumab and mFFX therapy were administered on the same day, Nivolumab was administered initially, and at least 30 minutes after the end of Nivolumab administration, mFFX therapy started.
Oxaliplatin was intravenously administered at 85 mg/m^2 over 2 hours, and then levofolinate was intravenously administered at 200 mg/m^2 over 2 hours. 30 minutes after the start of levofolinate administration, irinotecan was intravenously administered at 150 mg/m^2 over 1.5 hours. Further, after completion of levofolinate administration, fluorouracil was intravenously administered at 2400 mg/m^2 over 46 hours. This was set as one cycle and repeated every 2 weeks.
The anti-tumor effect was evaluated by image diagnosis using CT/magnetic resonance imaging (MRI) on chest, abdomen and pelvis, and measuring the tumor diameter in target lesion according to RECIST guideline version 1.1. The diagnosis imaging (measurement of tumor diameter and judgement of anti-tumor effect) was conducted at the following time points. […]
6 months after the first subject was enrolled, for 7 subjects in which the image diagnosis twice every 8 weeks as defined in the clinical trial protocol was completed (16 weeks after the start of administration of the drug), the effectiveness was evaluated (central judgment).

[1] = Nivolumab 480 mg i.v. every 4 weeks in combination with mFFX therapy, 7 subjects evaluated

Substance: Nivolumab
- response rate (Nivolumab 480 mg i.v. every 4 weeks in combination with mFFX therapy every 2 weeks, 7 subjects with distant metastatic pancreatic cancer, no history of chemotherapy): 42.9%
- CR (number of cases) [1]: 0 cases
- PR (number of cases) [1]: 3 cases
